# In patent EP0155872A1, “Process for reducing the lignin content of plants, and compositions for putting it into use” (priority 1984, dated 1985):
# Where “and” joins values, the source holds several entries; their conditions need not be identical. Identical values can stand only once.
# Columns and labels:
# CAD de peuplier = target: T1, CAD de peuplier (Populus deltoides, UniProt P31657); experiment: In vitro inhibition of isolated poplar cinnamyl alcohol dehydrogenase (CAD) at 2 mM; assay type: biochemical; conditions: 2mM, CAD de peuplier; for inhibition at 2000 µM: read-out: Inhibition à 2mM %
# T1 construct: CAD de peuplier isolée selon la méthode deSARNI et al,1984; from tissue; host or cells: poplar plant material
# T1 sequence (P31657 1-357): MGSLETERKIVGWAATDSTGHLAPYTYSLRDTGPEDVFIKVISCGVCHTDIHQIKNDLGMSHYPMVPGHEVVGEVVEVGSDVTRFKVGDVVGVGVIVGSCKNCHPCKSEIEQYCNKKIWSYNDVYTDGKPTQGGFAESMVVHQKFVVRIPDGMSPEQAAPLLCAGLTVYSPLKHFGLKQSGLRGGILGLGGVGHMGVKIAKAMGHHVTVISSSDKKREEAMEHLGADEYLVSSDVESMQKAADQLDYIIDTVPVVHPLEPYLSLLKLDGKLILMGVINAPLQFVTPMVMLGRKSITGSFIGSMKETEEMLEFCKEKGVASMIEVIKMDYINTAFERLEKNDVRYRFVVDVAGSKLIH
# Description: Après réacidification à pH2 par de l'acide chlorhydrique 3N et centrifugation, le surnageant contenant les acides cinnamiques est séparé du résidu. Les "poudres alcool-benzène" ainsi hydrolysées sont lavées par de l'eau distillée jusqu'à pH neutre et séchées, sous vide dans un dessiccateur en présence de silica.-gel. Les teneurs en lignines sont estimées par la méthode gravimétriques de KLASON (Tappi Standard method Tl2m) modifiée par EFFLAND. Tappi, 60, p 143-144, 1977. On rapporte dans le tableau 1) suivant les résultats obtenus concernant l'effet mesuré in vitro d'inhibiteurs selon l'invention à une concentration de 2mM vis-à-vis de la CAD de peuplier isolée selon la méthode deSARNI et al,1984,EUROP JOURNAL OF BIOCHEMISTRY, 18(1),139, 259-265 On indique également dans ce tableau les résultats obtenus avec des composés portant des substitutions différentes de ceux mis enoe uvre dans l'invention. Les chiffres indiqués entre parenthèses a côté des formules correspondent aux composés identifiés dans les exemples de préparation 2 et 3.
# On rapporte dans le tableau 2 suivant les pourcentages d'inhibition de la CAD obtenus en utilisant, à raison de 2 mM, différents composés capables de complexer Zn.
# CAD = target: T2, CAD (Populus deltoides, UniProt P31657); experiment: Specificity of the inhibitors among the enzymes tested; assay type: biochemical
# T2 sequence (P31657 1-357): T1 sequence (P31657 1-357)
# tiges de peuplier = experiment: Incorporation of cinnamic acid (14C3) into lignins in cut poplar stems; assay type: in vivo; conditions: 96 heures de métabolisation, read-out: inhibition de l'incorporation de l'acide cinnamique dans le polymère
# Description: Afin de vérifier chez des tiges de peuplier l'action de l'OHPAS et du NH2PAS, on réalise des incorporations d'acide cinnamique (5 yCi) à des rameaux comportant 12 entrenoeuds selon la technique de la tige sectionnée décrite par BOUDET,dans C.R. Acad. Sci.Paris, p. 1966-1968, 269, 1969. La radioactivité des lignines est mesurée après 96 heures de métabolisation.
# Lorsque la métabolisation est effectuée en présence du OHPAS et du NH2PAS, on observe une diminution de la radioactivité incorporée dans les lignines. Ainsi, l'OHPAS, à la concentration de 160 µM inhibe de 46% l'incorporation de l'acide cinnamique dans le polymère. Bien que les concentrations en inhibiteurs soient plus faibles, l'effet des inhibiteurs apparaîtsemanifester de façon plus nette-pour une métabolisation de plus longue durée.
# plants de mais = experiment: Soluble phenolic compounds of treated maize plants; assay type: in vivo; conditions: plants âgés de 30 jours, 80 µM; for FLAVONOIDES / PHENOLS SIMPLES: mean of 3
# Procedure: Les différentes études dont les résultats sont rapportés ci-après ont été réalisées à partir de plants de mais âgés de 30 jours et traités par l'OHPAS et le NH2PAS à la concentration de 80 µM.
# Le traitement des plants par les inhibiteurs ne modifie pas les teneurs en ces composés comme le montrent les résultats rapportés dans le tableau 6 ci-après. Cependant, on constate une baisse importante (40% avec l'OHPAS) des quantités de flavonoïdes.
# CCR = experiment: Inhibition of cinnamoyl:CoA reductase (CCR); assay type: biochemical
spécificité en regard des enzymes testées (CAD),SMILES,inhibition at 2000 µM (CAD de peuplier),inhibition at 160 µM (tiges de peuplier),% PERTE (phénols simples) (plants de mais),% PERTE (flavonoïdes) (plants de mais; listed as OHPAS),FLAVONOIDES (plants de mais),PHENOLS SIMPLES (plants de mais),Inhibition à 2mM % (CAD de peuplier; 2000 µM),inhibition de la CCR (CCR),% PERTE (flavonoïdes) (plants de mais)
spécificité stricte vis-à-vis de la CAD,"CC(C)(C)OC(=O)C[S+]([O-])Nc1ccccc1O (centres unmarked) [composé 2, N-(o -hydroxy phényl)sulfinamoyl acétate de tertiobutyle]",90%,46%,0%,40% and 42%,28 ± 11 mg d'acide gallique par g de matériel,107 ± 8 mg d'acide gallique par g de matériel,–,–,–
–,"CC(C)(C)OC(=O)C[S+]([O-])Nc1ccccc1N (centres unmarked) [composé 5, N-(o-Amino phényl)Sulfinamoyl Acétate de tertiobutyle]",90%,–,0%,–,25 ± 14 mg d'acide gallique par g de matériel,101 ± 10 mg d'acide gallique par g de matériel,80%,inhibe également la CCR,48%
